{
  "source": "patent US20040157773A1",
  "about": "“Farnesyl protein transferase inhibitors for treating cachexia” (priority 2003, published 2004)",
  "key": {"[1]": {"experiment": "Body weight loss (cachexia) in nude mice bearing subcutaneous A375.S2 tumors", "format": "in vivo", "details": "for reduction in weight loss: weight loss day 1 to day 23, corrected for tumor burden, vs vehicle", "source_text": "(§1) A375.S2 human melanoma cells were purchased from the American Type Culture Collection (Rockville, Md.). Cells were maintained in Dulbecco's Modified Eagle's Medium supplemented with pyruvate, nonessential amino acids, 10% fetal calf serum and penicillin-streptomycin.\n(§2) Female nu/nu immunodeficient nude mice (42 days old) were purchased from Charles River Laboratories (Wilmington, Mass.). Mice were housed five per cage in microisolator cages placed in laminar flow shelving to maintain sterility. All bedding, food, water and cages were autoclaved. Animals were handled within the sterile confines of a laminar flow cabinet. The mice were otherwise maintained under standard vivarium conditions.\nCells growing as monolayers in T150 tissue culture flasks were detached by trypsinization with 10 ml of 0.05% trypsin plus 0.53 mM EDTA per flask. Tumor cell suspensions were pooled and trypsin was inactivated by the addition of serum containing medium (10 ml per 40 ml of trypsin cell suspension). Cells were collected by centrifugation and resuspended in Hank's Balanced Salt Solution (HBSS) warmed to 37° C. A 1.0 ml portion of cell suspension was added to 20 ml of diluent and counted on a Coulter particle counter. The cell suspensions were recentrifuged and resuspended at a concentration of 1×10^6 cell per 0.10 ml of HBSS. Mice were inoculated with a single subcutaneous injection of 0.10 ml of tumor cell suspension in the inguinal region. Mice were housed five per cage with 15 mice assigned to each treatment group. Mice were tagged by ear punches to allow the monitoring of individual mice during the course of the study. Body weight and tumor size determined from caliper measurements were measured weekly. The caliper measurements of length and width were multiplied to obtain tumor areas. At the end of study, mice were sacrificed by CO2 asphyxiation. Three days after tumor inoculation, the five-day treatment with R115777 was initiated. R115777 was administered once daily by oral gavage in a 20% β-cyclodextrin vehicle as a volume of 0.10 ml of solution per 10 gm body weight. Control groups received the same dosage volume of the 20% β-cyclodextrin vehicle.\nR115777 was prepared for oral administration by dissolving the compound first as a 2× concentrated stock in 40% hydroxypropyl β-cyclodextrin in 0.1 N HCl. R115777 was dissolved by stirring vigorously approximately 30 minutes followed by sonication for 10 min. The R115777 solutions were brought to a final concentration by diluting 1:1 with 0.1 N HCl. The final drug solutions were sterile filtered immediately and transferred to sterile tubes. Solutions were stored refrigerated and protected from light during the course of the study and sterility was maintained by opening solutions under sterile laminar flow conditions.\nAnalysis of variance, mean values for treatment groups and standard error of the mean for in vivo parameters were calculated using IMSL subroutines on a VAX computer. A value of p<0.05 was considered significant. Weight loss was calculated for each individual animal from day 1 to day 23. Mean body weight loss for each treatment group was calculated and used for statistical analyses."}, "[2]": {"system": "A375.S2 human melanoma cells", "experiment": "Tumor growth of subcutaneous A375.S2 xenografts in nude mice", "format": "in vivo", "details": "oral", "source_text": "as §1, §2\nCells growing as monolayers in T150 tissue culture flasks were detached by trypsinization with 10 ml of 0.05% trypsin plus 0.53 mM EDTA per flask. […] A 1.0 ml portion of cell suspension was added to 20 ml of diluent and counted on a Coulter particle counter. […]\nAnalysis of variance, mean values for treatment groups and standard error of the mean for in vivo parameters were calculated using IMSL subroutines on a VAX computer. […] Weight loss was calculated for each individual animal from day 1 to day 23. Mean body weight loss for each treatment group was calculated and used for statistical analyses."}},
  "data": [
    {"smiles": "Cn1cncc1C(N)(c1ccc(Cl)cc1)c1ccc2c(c1)c(-c1cccc(Cl)c1)cc(=O)n2C", "note": "(single isomer, unassigned; (+)) [R115777, (+)-6-[amino(4-chlorophenyl)(1-methyl-1H-imidazol-5-yl)methyl]-4-(3-chlorophenyl)-1-methyl-2(1H)-quinolinone]", "values": [
      {"measurement": "reduction in weight loss", "setting": "[1]; 50 mg/kg once daily oral gavage, A375.S2 tumor-bearing nude mice", "result": 28, "unit": "%"},
      {"measurement": "reduction in weight loss", "setting": "[1]; 100 mg/kg once daily oral gavage, A375.S2 tumor-bearing nude mice", "result": 45, "unit": "%"},
      {"measurement": "reduction in weight loss", "setting": "[1]; 200 mg/kg once daily oral gavage, A375.S2 tumor-bearing nude mice", "result": 67, "unit": "%"},
      {"measurement": "body weight course (weight loss)", "setting": "[1]; oral, 50-200 mg/kg, body weight over time from day 14 (FIG. 2), A375.S2 tumor-bearing nude mice", "result": "appeared to prevent or delay the weight loss in a dose-dependent fashion"},
      {"measurement": "body weight loss, statistical result", "setting": "[1]; oral, 50-200 mg/kg, individual weight loss day 1 to day 23 corrected for tumor burden (FIG. 3), p<0.05 significant", "result": "significant dose dependent reduction of body weight loss"},
      {"measurement": "reduction of final tumor weight", "setting": "[2]; highest tested dose, postmortem tumor weight (FIG. 5)", "result": 27, "unit": "%"},
      {"measurement": "tumor growth from tumor area measurements", "setting": "[2]; 50-200 mg/kg, biweekly tumor area measurements (FIG. 1)", "result": "minimal reduction in tumor growth"}
    ]}
  ]
}
